The results in this text go back to patent US9814699B2, “Chemical compounds” (Janssen Pharmaceuticals, Inc., priority 2009, dated 2017).

SMILES strings stand for the structures.

In assay [1] the test system is HCV genotype 1a subgenomic replicon. Put plainly: HCV replicon assay, genotype 1a subgenomic replicon (luciferase). The format is cell-based. The conditions noted are these: Hepatitis C virus; genotype 1a replicon stable cell line, luciferase activity measured 48 hours later; read-out: Replicon 1A pEC50 (converted). As to the method: (§1) Protocol for Testing and Data Analysis of Compounds in the HCV Replicon Assay
(§2) Compounds were assayed for activity against HCV using the genotype 1a and 1b subgenomic replicon model systems. Stable cell lines bearing the genotype 1a and 1b replicons were used for screening of compounds. Both replicons are bicistronic and contain the firefly luciferase gene. The ET cell line is stably transfected with RNA transcripts harboring a I389luc-ubi-neo/NS3-3′/ET replicon with firefly luciferase-ubiquitin-neomycin phosphotransferase fusion protein and EMCV-IRES driven NS3-5B polyprotein containing the cell culture adaptive mutations (E1202G; T1280I; K1846T) (Krieger at al, 2001 and unpublished). The genotype 1a replicon is a stable cell line licensed from Apath LLC, modified to contain the firefly luciferase gene. The cells were grown in DMEM, supplemented with 10% fetal calf serum, 2 mM Glutamine, Penicillin (100 IU/mL)/Streptomycin (100 μg/mL), 1× nonessential amino acids, and 250-500 μg/mL G418 (“Geneticin”). They were all available through Life Technologies (Bethesda, Md.). The cells were plated at 5×10^3 cells/well in 384 well plates containing compounds. The final concentration of compounds ranged between 0.03 pM to 50 μm and the final DMSO concentration of 0.5-1%.
(§3) Luciferase activity was measured 48 hours later by adding a Steady glo reagent (Promega, Madison, Wis.). Percent inhibition of replication data was plotted relative to no compound control. Under the same condition, cytotoxicity of the compounds was determined using cell titer glo (Promega, Madison, Ws). EC50s were determined from an 11 point dose response curve using 3-4-fold serial dilution for each compound, which spans a concentration range >1000 fold. The level of inhibition for each compound was determined with Activity Base or with BioAssay plus the Excel XC50 module. Percent inhibition was determined with the following equation where the cross-talk corrected value is the value from the test well, the compound positive control mean is the average value of the wells with no compound present, and the DMSO negative control mean is the average value of the wells with DMSO but no cells present.
(§4) [formula] These normalized values are exported to EC50 where they are plotted against the molar compound concentrations using the standard four parameter logistic equation: […]
(In general: Replicon systems follow genome replication, usually without infectious particles.)

Assay [2] deals with HCV genotype 1b subgenomic replicon. The experiment in a line: HCV replicon assay, genotype 1b subgenomic replicon (ET cell line, luciferase). Type of assay: cell-based. The conditions noted are these: Hepatitis C virus; genotype 1b replicon ET cell line, luciferase activity measured 48 hours later; read-out: Replicon 1B pEC50 (converted). As to the method:
as §1, §2, §3, §4

For the compound `COC(=O)N[C@H](C(=O)N1CC2(CC1c1ncc(-c3ccc(-c4ccc(-c5cnc([C@@H]6CCCN6C(=O)[C@@H](NC(=O)OC)C(C)C)[nH]5)cc4)cc3)[nH]1)CN(S(C)(=O)=O)C2)C(C)C` (stereo partly drawn) [Example 28, methyl [(1S)-2-methyl-1-({(2S)-2-[4-(4′-{2-[6-((2S)-3-methyl-2-{[(methyloxy)carbonyl]amino}butanoyl)-2-(methylsulfonyl)-2,6-diazaspiro[3.4]oct-7-yl]-1H-imidazol-4-yl}-4-biphenylyl)-1H-imidazol-2-yl]-1-pyrrolidinyl}carbonyl)propyl]carbamate], the EC50 in assay [1] was 1.58 nM; in assay [2], 0.0501 nM.

In the case of `COC(=O)N[C@H](C(=O)N1CCC[C@H]1c1ncc(-c2ccc(-c3ccc(-c4cnc([C@@H]5CC6(CN5C(=O)[C@@H](NC(=O)OC)C(C)C)CC(F)(F)C6)[nH]4)cc3)cc2)[nH]1)C(C)C` [Example 29, methyl [(1S)-1-({(2S)-2-[4-(4′-{2-[(7S)-2,2-difluoro-6-((2S)-3-methyl-2-{[(methyloxy)carbonyl]amino}butanoyl)-6-azaspiro[3.4]oct-7-yl]-1H-imidazol-4-yl}-4-biphenylyl)-1H-imidazol-2-yl]-1-pyrrolidinyl}carbonyl)-2-methylpropyl]carbamate], the EC50 in assay [1] was 0.1 nM; in assay [2] it was 0.00316 nM.

`COC(=O)N[C@H](C(=O)N1CCC[C@H]1c1ncc(-c2ccc(-c3ccc(-c4cnc(C5CCC6(CCOCC6)N5C(=O)[C@@H](NC(=O)OC)C(C)C)[nH]4)cc3)cc2)[nH]1)C(C)C` (stereo partly drawn) [Example 30, methyl [(1S)-2-methyl-1-({(2S)-2-[4-(4′-{2-[1-((2S)-3-methyl-2-{[(methyloxy)carbonyl]amino}butanoyl)-8-oxa-1-azaspiro[4.5]dec-2-yl]-1H-imidazol-4-yl}-4-biphenylyl)-1H-imidazol-2-yl]-1-pyrrolidinyl}carbonyl)propyl]carbamate]: the EC50 was 1.58 nM in assay [1] and 0.0631 nM in assay [2].

In the case of `COC(=O)N[C@H](C(=O)N1CCC[C@H]1c1ncc(-c2ccc(-c3ccc(-c4cnc(C5CCC6(CCOCC6)N5C(C)=O)[nH]4)cc3)cc2)[nH]1)C(C)C` (stereo partly drawn) [Example 31, methyl ((1S)-1-{[(2S)-2-(4-{4′-[2-(1-acetyl-8-oxa-1-azaspiro[4.5]dec-2-yl)-1H-imidazol-4-yl]-4-biphenylyl}-1H-imidazol-2-yl)-1-pyrrolidinyl}carbonyl]-2-methylpropyl)carbamate], the EC50 in assay [1] is 0.316 nM; in assay [2], 0.0126 nM.

Take `COC(=O)N[C@H](C(=O)N1CCC[C@H]1c1ncc(-c2ccc(-c3ccc(-c4c[nH]c(C5CCC6(CCC(F)(F)CC6)N5C(=O)[C@@H](NC(=O)OC)C(C)C)n4)cc3)cc2)[nH]1)C(C)C` (stereo partly drawn) [Example 32, methyl [(1S)-1-({(2S)-2-[4-(4′-{2-[8,8-difluoro-1-((2S)-3-methyl-2-{[(methyloxy)carbonyl]amino}butanoyl)-1-azaspiro[4.5]dec-2-yl]-1H-imidazol-4-yl}-4-biphenylyl)-1H-imidazol-2-yl]-1-pyrrolidinyl}carbonyl)-2-methylpropyl]carbamate]: the EC50 in assay [1] is 1.58 nM; in assay [2], 0.0158 nM.

As for `CC[C@H](NC(=O)OC)C(=O)N1C(c2nc(-c3ccc(-c4ccc(-c5cnc([C@@H]6CCCN6C(=O)[C@@H](NC(=O)OC)C(C)C)[nH]5)cc4)cc3)c[nH]2)CCC12CCC(F)(F)CC2` (stereo partly drawn) [Example 33, methyl [(1S)-1-({8,8-difluoro-2-[4-(4′-{2-[(2S)-1-((2S)-3-methyl-2-{[(methyloxy)carbonyl]amino}butanoyl)-2-pyrrolidinyl]-1H-imidazol-4-yl}-4-biphenylyl)-1H-imidazol-2-yl]-1-azaspiro[4.5]dec-1-yl}carbonyl)propyl]carbamate], the EC50 in assay [1] was 1 nM; in assay [2] it was 0.0158 nM.

Consider `COC(=O)N[C@@H](C)C(=O)N1C(c2nc(-c3ccc(-c4ccc(-c5cnc([C@@H]6CCCN6C(=O)[C@@H](NC(=O)OC)C(C)C)[nH]5)cc4)cc3)c[nH]2)CCC12CCC(F)(F)CC2` (stereo partly drawn) [Example 34, methyl ((1S)-2-{8,8-difluoro-2-[4-(4′-{2-[(2S)-1-((2S)-3-methyl-2-{[(methyloxy)carbonyl]amino}butanoyl)-2-pyrrolidinyl]-1H-imidazol-4-yl}-4-biphenylyl)-1H-imidazol-2-yl]-1-azaspiro[4.5]dec-1-yl}-1-methyl-2-oxoethyl)carbamate], for which the EC50 is 0.631 nM in assay [1] and 0.01 nM in assay [2].

For `COC(=O)N[C@@H](CC(C)C)C(=O)N1C(c2nc(-c3ccc(-c4ccc(-c5cnc([C@@H]6CCCN6C(=O)[C@@H](NC(=O)OC)C(C)C)[nH]5)cc4)cc3)c[nH]2)CCC12CCC(F)(F)CC2` (stereo partly drawn) [Example 35, methyl [(1S)-1-({8,8-difluoro-2-[4-(4′-{2-[(2S)-1-((2S)-3-methyl-2-{[(methyloxy)carbonyl]amino}butanoyl)-2-pyrrolidinyl]-1H-imidazol-4-yl}-4-biphenylyl)-1H-imidazol-2-yl]-1-azaspiro[4.5]dec-1-yl}carbonyl)-3-methylbutyl]carbamate], the EC50 was 2 nM in assay [1] and 0.0126 nM in assay [2].

Consider `COC(=O)N[C@H](C(=O)N1CCC[C@H]1c1ncc(-c2ccc(-c3ccc(-c4c[nH]c(C5CCC6(CCC(F)(F)CC6)N5C(C)=O)n4)cc3)cc2)[nH]1)C(C)C` (stereo partly drawn) [Example 36, methyl ((1S)-1-{[(2S)-2-(4-{4′-[2-(1-acetyl-8,8-difluoro-1-azaspiro[4.5]dec-2-yl)-1H-imidazol-4-yl]-4-biphenylyl}-1H-imidazol-2-yl)-1-pyrrolidinyl]carbonyl}-2-methylpropyl)carbamate], for which the values for the EC50 in assay [1] and in assay [2] were 25.1 nM and 0.1 nM, respectively.

Turning to `COC(=O)N[C@H](C(=O)N1CCC[C@H]1c1ncc(-c2ccc(-c3ccc(-c4c[nH]c(C5CCC6(CCS(=O)(=O)CC6)N5C(=O)[C@@H](NC(=O)OC)C(C)C)n4)cc3)cc2)[nH]1)C(C)C` (stereo partly drawn) [Example 37, methyl [(1S)-2-methyl-1-({(2S)-2-[4-(4′-{2-[1-((2S)-3-methyl-2-{[(methyloxy)carbonyl]amino}butanoyl)-8,8-dioxido-8-thia-1-azaspiro[4.5]dec-2-yl]-1H-imidazol-4-yl}-4-biphenylyl)-1H-imidazol-2-yl]-1-pyrrolidinyl}carbonyl)propyl]carbamate], the EC50 is 12.6 nM in assay [1] and 0.316 nM in assay [2].
